These results are taken from US20140107109A1, “AMINO-DIHYDROTHIAZINE AND AMINO-DIOXIDO DIHYDROTHIAZINE COMPOUNDS AS BETA-SECRETASE ANTAGONISTS AND METHODS OF USE” (Amgen Inc., priority 2012, published 2014).

pIC50: −log10 of the molar value.

One assay deals with T1, Cathepsin D (Cat D) (Homo sapiens, UniProt P07339).
T1 construct: Recombinant Cat D was expressed in CHO cells; made in house; host or cells: CHO cells
Briefly: In vitro enzymatic Cathepsin D (Cat D) FRET assay. As to conditions: read-out: CatD IC50. The class given is biochemical. Summed up: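 Recombinant Cat D expressed in CHO cells, used at 9 nM and pre-incubated one hour with serially diluted inhibitor in DMSO. Peptide substrate carries a fluorophore and quencher flanking the cleavage site; reaction stopped with Tris buffer raising pH to neutrality, then fluorescence read.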

Assay [1] deals with Aβ40 in conditioned medium of cells stably expressing Amyloid Precursor Protein (APP). Put plainly: In vitro BACE cell-based assay (HEK cell assay), Aβ40 sandwich ELISA. As to conditions: Homo sapiens, HEK293. The gist of the method: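 APP-stably expressing cells (40K/well, grown 24 h in DMEM/10% FBS) were treated 24 h with compounds in 10-point dose response starting at 100 μM or 10 μM, 0.1% DMSO final. Secreted Aβ40 was measured by sandwich ELISA (pAb40 capture, biotinylated 6E10 detection, europium time-resolved fluorescence); IC50 from percent inhibition.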
In general terms: In an ELISA, binding on a coated surface is turned into a signal by an enzyme label.

Assay [2] addresses Beta Secretase enzyme (BACE1) (Homo sapiens, UniProt P56817). Put plainly: In vitro enzymatic BACE FRET assay. In kind it is biochemical. As to conditions: average IC50, enzyme assay; read-out: BACE1 FRET assay IC50. The gist of the method:
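BACE1 cleavage of a 50 nM fluorophore/quencher peptide FRET substrate ran for one hour in 0.05 M acetate pH 4.2, 10% DMSO, 100 uM genapol. Tris buffer raised pH to neutrality to stop the reaction before fluorescence was read (excitation 488 nm, […]).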

T1 sequence (P07339 65-412, species assumed): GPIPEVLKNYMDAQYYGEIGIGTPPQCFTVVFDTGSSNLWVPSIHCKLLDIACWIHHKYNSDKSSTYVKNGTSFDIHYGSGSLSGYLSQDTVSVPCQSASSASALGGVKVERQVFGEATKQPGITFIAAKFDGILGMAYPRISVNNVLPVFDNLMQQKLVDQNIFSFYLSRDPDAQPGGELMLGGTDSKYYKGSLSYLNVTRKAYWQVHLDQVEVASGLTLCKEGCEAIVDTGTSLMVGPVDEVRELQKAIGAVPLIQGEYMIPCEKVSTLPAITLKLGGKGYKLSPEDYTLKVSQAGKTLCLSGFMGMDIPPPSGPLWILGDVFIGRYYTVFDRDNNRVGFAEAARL
Sequence of Beta Secretase enzyme (BACE1) (P56817 46-501): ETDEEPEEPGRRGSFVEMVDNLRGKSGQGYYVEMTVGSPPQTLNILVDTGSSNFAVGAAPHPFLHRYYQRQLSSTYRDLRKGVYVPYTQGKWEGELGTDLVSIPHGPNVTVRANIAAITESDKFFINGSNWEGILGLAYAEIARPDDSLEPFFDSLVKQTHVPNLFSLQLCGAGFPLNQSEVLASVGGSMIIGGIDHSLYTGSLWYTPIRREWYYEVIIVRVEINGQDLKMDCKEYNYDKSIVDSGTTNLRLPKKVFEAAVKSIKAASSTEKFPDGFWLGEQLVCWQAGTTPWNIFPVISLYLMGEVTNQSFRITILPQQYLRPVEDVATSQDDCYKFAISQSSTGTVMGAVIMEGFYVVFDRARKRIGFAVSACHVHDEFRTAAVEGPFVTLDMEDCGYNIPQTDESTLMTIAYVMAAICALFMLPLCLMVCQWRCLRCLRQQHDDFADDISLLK

What is called pIC50 is the IC50 on a negative log10 scale, so that one unit is a factor of ten. As for `CC1(C)C(N)=N[C@](C)(c2cc(Oc3nccc4ccsc34)ccc2F)CS1(=O)=O` [Example 291, (5R)-5-(2-fluoro-5-(thieno[2,3-c]pyridin-7-yloxy)phenyl)-2,2,5-trimethyl-5,6-dihydro-2H-1,4-thiazin-3-amine 1,1-dioxide], the pIC50 on Cathepsin D (Cat D) was 3.62; in assay [1] (average IC50, cell assay), 6.04; in assay [2], 6.29.
For the compound `CC1(C)C(N)=N[C@](C)(c2cc(Oc3ncc(C(N)=O)c4sccc34)ccc2F)CS1(=O)=O` [Example 292, 4-(3-((3R)-5-amino-3,6,6-trimethyl-1,1-dioxido-3,6-dihydro-2H-1,4-thiazin-3-yl)-4-fluorophenoxy)thieno[3,2-c]pyridine-7-carboxamide], the pIC50 is 3.66 on Cathepsin D (Cat D); 5.65 in assay [1] (average IC50, HEK cell assay); 5.70 in assay [2].
With `CC1(C)C(N)=N[C@](C)(c2cc(Oc3nccc(-c4ccccc4)c3C#N)ccc2F)CS1(=O)=O` [Example 293, 2-(3-((3R)-5-amino-3,6,6-trimethyl-1,1-dioxido-3,6-dihydro-2H-1,4-thiazin-3-yl)-4-fluorophenoxy)-4-phenyl-3-pyridinecarbonitrile], the pIC50 at Cathepsin D (Cat D) was 4.29; in assay [1] (average IC50, HEK cell assay), 6.17; in assay [2] it was 6.08.
For `CC1(C)C(N)=N[C@](C)(c2cc(Oc3nccc4ccccc34)ccc2F)CS1(=O)=O` [Example 294, (5R)-5-(2-fluoro-5-(1-isoquinolinyloxy)phenyl)-2,2,5-trimethyl-5,6-dihydro-2H-1,4-thiazin-3-amine 1,1-dioxide], the pIC50 on Cathepsin D (Cat D) is 3.69; in assay [1] (average IC50, HEK cell assay), 5.94; in assay [2] it was 5.98.
As for `Cc1cc(C)c(C#N)c(Oc2ccc(F)c([C@]3(C)CS(=O)(=O)C(C)(C)C(N)=N3)c2)n1` [Example 295, 2-(3-((3R)-5-amino-3,6,6-trimethyl-1,1-dioxido-3,6-dihydro-2H-1,4-thiazin-3-yl)-4-fluorophenoxy)-4,6-dimethyl-3-pyridinecarbonitrile], the pIC50 is 2.77 on Cathepsin D (Cat D); 5.61 in assay [1] (average IC50, HEK cell assay); 5.58 in assay [2].
Consider `Cc1ccc(C#N)c(Oc2ccc(F)c([C@]3(C)CS(=O)(=O)C(C)(C)C(N)=N3)c2)n1` [Example 296, 2-(3-((3R)-5-amino-3,6,6-trimethyl-1,1-dioxido-3,6-dihydro-2H-1,4-thiazin-3-yl)-4-fluorophenoxy)-6-methyl-3-pyridinecarbonitrile], for which the pIC50 is 3.63 on Cathepsin D (Cat D); 6.29 in assay [1] (average IC50, HEK cell assay); 6.58 in assay [2].
On to `COc1cccnc1Oc1ccc(F)c([C@]2(C)CS(=O)(=O)C(C)(C)C(N)=N2)c1` [Example 297, (5R)-5-(2-fluoro-5-((3-methoxy-2-pyridinyl)oxy)phenyl)-2,2,5-trimethyl-5,6-dihydro-2H-1,4-thiazin-3-amine 1,1-dioxide], for which the pIC50 on Cathepsin D (Cat D) is 3.01; in assay [1] (average IC50, HEK cell assay), 6.66; in assay [2] it was 6.69.
For the compound `Cc1cc(C(F)(F)F)cc(Oc2ccc(F)c([C@]3(C)CS(=O)(=O)C(C)(C)C(N)=N3)c2)n1` [Example 298, (5R)-5-(2-fluoro-5-((6-methyl-4-(trifluoromethyl)-2-pyridinyl)oxy)phenyl)-2,2,5-trimethyl-5,6-dihydro-2H-1,4-thiazin-3-amine 1,1-dioxide], the pIC50 was 3.26 at Cathepsin D (Cat D); 6.13 in assay [1] (average IC50, HEK cell assay); 6.97 in assay [2].
The corresponding values for `CC1(C)C(N)=N[C@](C)(c2cc(Oc3ncc(Cl)cc3Cl)ccc2F)CS1(=O)=O` [Example 299, (5R)-5-(5-((3,5-dichloro-2-pyridinyl)oxy)-2-fluorophenyl)-2,2,5-trimethyl-5,6-dihydro-2H-1,4-thiazin-3-amine 1,1-dioxide] are 4.08, 6.10 and 6.76.
For `CC1(C)C(N)=N[C@](C)(c2cc(Oc3ncc(C(N)=O)cc3F)ccc2F)CS1(=O)=O` [Example 300, 6-(3-((3R)-5-amino-3,6,6-trimethyl 1,1-dioxido-3,6-dihydro-2H-1,4-thiazin-3-yl)-4-fluorophenoxy)-5-fluoro-3-pyridinecarboxamide], in that order: 3.14, 5.93 and 6.05.
Turning to `Cc1nc2c(Oc3ccc(F)c([C@]4(C)CS(=O)(=O)C(C)(C)C(N)=N4)c3)nccc2s1` [Example 302, (5R)-5-(2-fluoro-5-((2-methyl[1,3]thiazolo[4,5-c]pyridin-4-yl)oxy)phenyl)-2,2,5-trimethyl-5,6-dihydro-2H-1,4-thiazin-3-amine 1,1-dioxide], the pIC50 on Cathepsin D (Cat D) is 3.62; in assay [1] (average IC50, HEK cell assay), 5.54; in assay [2], 5.46.
Take `COc1cnc2c(Oc3ccc(F)c([C@]4(C)CS(=O)(=O)C(C)(C)C(N)=N4)c3)nccc2n1` [Example 303, (5R)-5-(2-fluoro-5-((2-methoxypyrido[3,4-b]pyrazin-5-yl)oxy)phenyl)-2,2,5-trimethyl-5,6-dihydro-2H-1,4-thiazin-3-amine 1,1-dioxide]: the pIC50 is 3.00 at Cathepsin D (Cat D); 5.60 in assay [1] (average IC50, HEK cell assay); 5.91 in assay [2].
`CC1(C)C(N)=N[C@](C)(c2cc(Oc3nccc4cc(Cl)cnc34)ccc2F)CS1(=O)=O` [Example 304, (5R)-5-(5-((3-chloro-1,7-naphthyridin-8-yl)oxy)-2-fluorophenyl)-2,2,5-trimethyl-5,6-dihydro-2H-1,4-thiazin-3-amine 1,1-dioxide]: the pIC50 was 3.55 on Cathepsin D (Cat D); 6.70 in assay [1] (average IC50, HEK cell assay); 6.90 in assay [2].
For the compound `CC1(C)C(N)=N[C@](C)(c2cc(Oc3ncccc3C#N)ccc2F)CS1(=O)=O` [Example 306, 2-(3-((3R)-5-amino-3,6,6-trimethyl-1,1-dioxido-3,6-dihydro-2H-1,4-thiazin-3-yl)-4-fluorophenoxy)-3-pyridinecarbonitrile], the pIC50 was 3.66 at Cathepsin D (Cat D); 6.62 in assay [1] (average IC50, HEK cell assay); 6.59 in assay [2].
With `CC1(C)C(N)=N[C@](C)(c2cc(Oc3nccc(C#N)c3Cl)ccc2F)CS1(=O)=O` [Example 307, 2-(3-((3R)-5-amino-3,6,6-trimethyl-1,1-dioxido-3,6-dihydro-2H-1,4-thiazin-3-yl)-4-fluorophenoxy)-3-chloro-4-pyridinecarbonitrile], the pIC50 is 3.53 on Cathepsin D (Cat D); 6.59 in assay [1] (average IC50, HEK cell assay); 6.77 in assay [2].
The corresponding values for `CC1(C)C(N)=N[C@](C)(c2cc(Oc3c(C#N)ccnc3Cl)ccc2F)CS1(=O)=O` [Example 308, 3-(3-((3R)-5-amino-3,6,6-trimethyl-1,1-dioxido-3,6-dihydro-2H-1,4-thiazin-3-yl)-4-fluorophenoxy)-2-chloro-4-pyridinecarbonitrile] are 3.65, 5.49 and 5.38.
`COc1ccnc(Oc2ccc(F)c([C@]3(C)CS(=O)(=O)C(C)(C)C(N)=N3)c2)n1` [Example 309, (5R)-5-(2-fluoro-5-((4-methoxy-2-pyrimidinyl)oxy)phenyl)-2,2,5-trimethyl-5,6-dihydro-2H-1,4-thiazin-3-amine 1,1-dioxide]: the negative-log IC50 (pIC50) on Cathepsin D (Cat D) is 3.56; in assay [1] (average IC50, HEK cell assay), 7.12; in assay [2], 7.00.
Turning to `Cc1ccnc(Oc2ccc(F)c([C@]3(C)CS(=O)(=O)C(C)(C)C(N)=N3)c2)c1C#N` [Example 310, 2-(3-((3R)-5-amino-3,6,6-trimethyl-1,1-dioxido-3,6-dihydro-2H-1,4-thiazin-3-yl)-4-fluorophenoxy)-4-methyl-3-pyridinecarbonitrile], the pIC50 was 3.35 at Cathepsin D (Cat D); 6.03 in assay [1] (average IC50, HEK cell assay); 5.87 in assay [2].
For the compound `Cc1c(C(F)(F)F)ccnc1Oc1ccc(F)c([C@]2(C)CS(=O)(=O)C(C)(C)C(N)=N2)c1` [Example 311, (5R)-5-(2-fluoro-5-((3-methyl-4-(trifluoromethyl)-2-pyridinyl)oxy)phenyl)-2,2,5-trimethyl-5,6-dihydro-2H-1,4-thiazin-3-amine 1,1-dioxide], the pIC50 is 3.40 at Cathepsin D (Cat D); 5.62 in assay [1] (average IC50, HEK cell assay); 5.59 in assay [2].
The corresponding values for `CC1(C)C(N)=N[C@](C)(c2cc(Oc3nccc(C(F)(F)F)c3C#N)ccc2F)CS1(=O)=O` [Example 312, 2-(3-((3R)-5-amino-3,6,6-trimethyl-1,1-dioxido-3,6-dihydro-2H-1,4-thiazin-3-yl)-4-fluorophenoxy)-4-(trifluoromethyl)-3-pyridinecarbonitrile] are 3.11, 5.80 and 5.54.
Turning to `CC1(C)C(N)=N[C@](C)(c2cc(NC(=O)c3cnc(C(F)F)cn3)ccc2F)CS1(=O)=O` [Example 313, N-(3-((3R)-5-amino-3,6,6-trimethyl-1,1-dioxido-3,6-dihydro-2H-1,4-thiazin-3-yl)-4-fluorophenyl)-5-(difluoromethyl)-2-pyrazinecarboxamide], the pIC50 at Cathepsin D (Cat D) is 3.05; in assay [1] (average IC50, HEK cell assay), 8.20; in assay [2], 8.53.
In the case of `CC1(C)C(N)=N[C@](C)(c2cc(NC(=O)c3cnc(OCC(F)F)cn3)ccc2F)CS1(=O)=O` [Example 314, N-(3-((3R)-5-amino-3,6,6-trimethyl-1,1-dioxido-3,6-dihydro-2H-1,4-thiazin-3-yl)-4-fluorophenyl)-5-(2,2-difluoroethoxy)-2-pyrazinecarboxamide], the pIC50 was 3.30 at Cathepsin D (Cat D); 8.30 in assay [1] (average IC50, HEK cell assay); 9.24 in assay [2].
